pIC50: −log10 of the molar value.
Columns and labels:
Type in all cases: cell-based
bovine nasal cartilage = assay: Bovine nasal cartilage assay: inhibition of IL-1β-induced proteoglycan loss (chondroitin sulfate by 1,9 DMB); settings: Bos taurus; concentration preventing 50% of proteoglycan loss; IL-1β-stimulated cartilage plugs
Method: The BNC (bovine nasal cartilage) assay provides a model for evaluating chrondroprotective compounds that block cartilage degradation through inhibition of enzyme activity or by altering the gene expression of the matrix metalloproteinases such as stromelysin.
The assay is accomplished in two phases. The cartilage plugs are first incubated with IL-1β in the presence of the compounds of the present method. The amount of proteoglycan released is then quantified by measuring chondroitin sulfate present in the media using the 1,9-Dimethylmethylene Blue Assay (1,9 DMB).
Bovine nasal septum is dissected free of surrounding tissue and wiped with 70% alcohol. A sterile cork borer is used to remove 5-mm cartilage disks of 2- to 3-mm thickness. Explants are equilibrated for 96 hours in F-12 supplemented with 10% fetal calf serum (FCS) and antibiotics at 37° C. in a humidified atmosphere of 95% air and 5% CO2. Explants are then rinsed with 1 mL F-12 Nutrient Mixture (without phenol red) in order to remove traces of FCS. Each treatment group is done in triplicate allowing: controls (500 μL F-12 medium +110 μL PBS with 0.1% BSA +7 μL DMSO); IL-1β (500 μL F-12 medium without phenol red +100 μL IL-1β (500 U) +7 μL DMSO +10 μL PBS with 0.1% BSA); and dose responses (10, 1, and 0.1 μM) (F-12 medium without phenol red +100 μL IL-1β (500 U) +7 μL compound dissolved in DMSO +10 μL PBS with 0.1% BSA), to be tested per each 24-well plate. The cartilage plugs are incubated in the presence of conditioned media (IL-1β+compound) for 48 hours. Fresh unconditioned media (no IL-1β or compound) is added and incubated for an additional 24 hours. Both the conditioned and unconditioned media are collected and saved for analysis using the 1,9 DMB assay.
The ability of a compound to inhibit proteoglycan released from the cartilage plugs is quantified by measuring chondroitin sulfate. This is done using the calorimetric 1,9 DMB assay. Depending on the amount of chondroitin sulfate present in the media a color change will occur turning the normally deep blue dye, vivid pink. This color change is measured using a Titertek Multiscan MCC 340 plate reader at 540 nm. A Cetus Pro/Pette is used to speed dilution and pipetting steps. The Cetus uses Sarstedt vials, designed for radioimmune assays, which have been inserted into Sarstedt 96-vial aluminum racks. The first row of 12 slots is left empty in order to accommodate the chondroitin sulfate standards (0.01-0.32 μg/mL shark chondroitin sulfate in 0.1 M phosphate buffer, pH 7.0, containing 0.01 M L-cysteine HCl and 0.05 M EDTA). It is necessary to dilute (1:5, 1:10) the medium before a […] is performed by adding 10 μL of collected media to 290 μL DMF (16 mg dye/1 L of 0.1 M formate buffer, pH 3.5, containing 5 mL ethanol) and reading at […]. Dilutions are performed on both the 48-hour and 72-hour media samples collected and saved earlier. Once the experiment has been completed, in order to determine the total amount of proteoglycan remaining in the plugs, they are subjected to papain digestion. Cartilage explants are digested in 20-mL glass scintillation vials by adding 50 μL papain in 1.0 mL cysteine buffer (0.01 M phosphate buffer, pH 7.0 containing 0.01 M L-cysteine HCl and 0.05 M EDTA). Digested material is diluted (1:60) and chondroitin sulfate values determined using the 1,9 DMB assay.
Determination of chondroitin sulfate in each sample is accomplished by subtracting the constant value determined from the linear regression performed on the standard curve, from the O.D. value for a particular well, and then dividing by the X coefficient calculated from the linear regression done on the standard curve. Each experimental well is split into two samples for determining chondroitin sulfate values, then the two are averaged. […]

92 kDa gelatinase = assay: Gelatin zymography of bovine nasal cartilage conditioned media: expression of 92 kDa gelatinase
Method: (§1) To evaluate the effects of the compounds of the present invention on the expression of 72 kDa and 92 kDa gelatinases, samples obtained from the bovine nasal cartilage study (described above) were subjected to gelatin zymography.
(§2) Separating gels (8%) were made by combining 400 μL gelatin (25 mg/mL) with: 2.5 mL Tris (1.5 M); 100 μL SDS (10%); 2.6 mL acrylamide (30%); 10 μL TEMED; 4.6 mL dH2 O; 100 μL ammonium persulfate (10%). Stacking gels (4.5%) were formed by combining: 2.5 mL Tris (0.5 M); 100 μL SDS (10%); 1.5 mL acrylamide (30%); 10 μL TEMED; 5.8 mL dH2 O; 100 μL ammonium persulfate (10%).
(§3) Bovine nasal cartilage conditioned media was diluted (1:15) using sample buffer 1X (2% SDS, 15% glycerol, 0.01% bromophenol blue, 0.25M Trizma Base, pH 6.8). Thirty microliters of each of the diluted samples and molecular weight standards were subjected to electrophoresis at 4° C. under constant current conditions (20 mA of current/gel) using Tris/Glycine running buffer (0.5 M Trizma Base, pH 8.8 using glycine, 1% SDS) that was diluted 1:20 before use.
After completion of the electrophoretic procedure, the gel was first washed twice for 15 minutes in 2.5% Triton X-100. The gel was then rinsed with the gel incubation buffer (0.05 M Tris, pH 8.2, 0.005 M CaCl2, 0.5 μM ZnCl2) and incubated overnight in this buffer at 37° C. After the incubation period, the gel was stained for 30 minutes in 0.125% Coomassie and destained using 10% methanol/5% acetic acid destaining solution.

72 kDa gelatinase = assay: Gelatin zymography of bovine nasal cartilage conditioned media: expression of 72 kDa gelatinase; settings: various concentrations, FIG. 1
Method: as §1, §2, §3
After completion of the electrophoretic procedure, the gel was first washed twice for 15 minutes in 2.5% Triton X-100. The gel was then rinsed with the gel incubation buffer (0.05 M Tris, pH 8.2, 0.005 M CaCl2, 0.5 μM ZnCl2) and incubated overnight in this buffer at 37° C. […]

Structure (SMILES) | pIC50 (bovine nasal cartilage) | other results
Cc1ccc(Cl)c(Nc2ccccc2C=C2SC(=S)NC2=O)c1Cl [Compound 11, 5-[2-(2,6-Dichloro-3-methyl-phenylamino)-benzylidene]-2-thioxo-thiazolidin-4-one] | 5.89 | inhibiting expression of IL-1β-induced 92 kDa gelatinase (92 kDa gelatinase; various concentrations, IL-1β-induced, FIG. 1): effective in inhibiting expression of IL-1β-induced 92 kDa gelatinase in a dose-dependent manner; specificity of effects (92 kDa versus 72 kDa gelatinase) (92 kDa gelatinase; versus 72 kDa gelatinase): specific to 92 kDa; effect on expression of 72 kDa gelatinase (72 kDa gelatinase): no effect on expression of 72 kDa gelatinase
Cc1ccc(Cl)c(Nc2ccccc2-c2nsc(NC#N)n2)c1Cl [Compound 18, Cyanamide, [3-[2-[(2,6-dichloro-3-methylphenyi)amino]phenyl]-1,2,4-thiadiazol-5-yl]-] | 6.52 | 
Cc1ccc(Cl)c(Nc2ccccc2/C=C2\SC(NC#N)=NC2=O)c1Cl [Compound 17, Cyanamide, [5-[[2-[(2,6-dichloro-3-methylphenyl)amino]phenyl]methylene]-4,5-dihydro-4-oxo-2-thiazolyl]-, (Z)-] | 6.10 | 
Cc1ccc(Cl)c(Nc2ccccc2-c2n[nH]c(=S)[nH]2)c1Cl [Compound 5, 5-[2-(2,6-Dichloro-3-methyl-phenylamino)-phenyl]-2,4-dihydro-[1,2,4]triazole-3-thione] | 5.00 | 
Cc1ccc(Cl)c(Nc2ccccc2C=C2SC(=O)NC2=O)c1Cl [Compound 15, 5-[2-(2,6-Dichloro-3-methyl-phenylamino)-benzylidene]-thiazolidine-2,4-dione] | 5.35 | 
Cc1ccc(Cl)c(Nc2ccccc2C(=O)NNC(N)=S)c1Cl [Compound 6, 2-[(2,6-dichloro-3-methylphenyl)amino]-,2-(aminothioxomethyl)hydrazide] | 5.89 | 
O=c1[nH]nc(-c2ccccc2Nc2ccccc2)o1 [Compound 2, 5-(2-Phenylamino-phenyl)-3H-[1,3,4]oxadiazol-2-one] | 4.39 | 
Cc1ccc(Cl)c(Nc2ccccc2-c2n[nH]c(=S)n2C)c1Cl [Compound 8, 5-[2-(2,6-Dichloro-3-methyl-phenylamino)-phenyl]-4-methyl-2,4-dihydro-[1,2,4]triazole-3-thione] | 5.31 | 
CC(C)(C)c1cc(Nc2ccccc2-c2n[nH]c(=S)o2)cc(C(C)(C)C)c1O [Compound 9, 5-[2-(3,5-Di-tert-butyl-4-hydroxy-phenylamino)-phenyl]-3H-[1,3,4]oxadiazole-2-thione] | 4.63 | 
Cc1ccc(Cl)c(Nc2ccccc2-c2nnc(NC#N)s2)c1Cl [Compound 12, Cyanamide, [5-[2-[(2,6-dichloro-3-methylphenyl)amino]phenyl]-1,3,4-thiadiazol-2-yl]-] | 5.19 | 

More lines, main results first:

pIC50 (bovine nasal cartilage) | Structure (SMILES) | other results
4.51 | Cc1cccc(Nc2ccccc2-c2n[nH]c(=S)o2)c1C [Compound 3, 5-[2-(2,3-Dimethyl-phenylamino)-phenyl]-3H-[1,3,4]oxadiazole-2-thione] | 
4.57 | Cc1ccc(Cl)c(Nc2ccccc2-c2n[nH]c(=S)o2)c1Cl [Compound 4, 5-[2-(2,6-Dichloro-3-methyl-phenylamino)-phenyl]-3H-[1,3,4]oxadiazole-2-thione] | 
5.85 | CNC(=O)N(O)C(C)c1cccc(Nc2ccccc2-c2n[nH]c(=S)o2)c1Cl (stereo not drawn) [Compound 16, Urea, N-[1-[2-chloro-3-[[(4,5-dihydro-5-thioxo-1,3,4-oxadiazol-2-yl)phenyl]amino]phenyl]ethyl]-N-hydroxy-N'-methyl-] | 
4.72 | CC(O)c1cccc(Nc2ccccc2-c2n[nH]c(=S)o2)c1Cl (stereo not drawn) [Compound 10, 5-{2-[2-Chloro-3-(1-hydroxy-ethyl)-phenylamino]-phenyl}-3H-[1,3,4]oxadiazole-2-thione] | 
5.28 | CCOC(=O)N(O)C(C)c1cccc(Nc2ccccc2-c2n[nH]c(=S)o2)c1Cl (stereo not drawn) [Compound 13, Carbamic acid, [1-[2-chloro-3-[[2-(4,5-dihydro-5-thioxo-1,3,4-oxadiazol-2-yl)phenyl]amino]phenyl]ethyl]hydroxy-, ethyl ester] | 

— patent publication US6211209A, “Method of inhibiting connective tissue degradation” (Warner-Lambert Company, priority 1998, dated 2001)
